Patent US9279003B2, “Analogs of sodium channel peptide toxin” (priority 2010, dated 2016)
Where a SMILES comes first, the peptide text is derived from it. Bridges are numbered along the chain shown (N, C = ends). [ ]: non-standard residue; d: D form. NMeL = CN[C@@H](CC(C)C)C(=O)O; αMeL = CC(C)C[C@](C)(N)C(=O)O

Experiments:
human Nav1.7 = human Nav1.7 (Homo sapiens, UniProt Q15858); assay: cell-based; assay type: cell-based
Nav1.2 (rBIIa) = assay type: cell-based, rat

human Nav1.7, sequence (Q15858 other isoform, or with tags, fused parts or gaps): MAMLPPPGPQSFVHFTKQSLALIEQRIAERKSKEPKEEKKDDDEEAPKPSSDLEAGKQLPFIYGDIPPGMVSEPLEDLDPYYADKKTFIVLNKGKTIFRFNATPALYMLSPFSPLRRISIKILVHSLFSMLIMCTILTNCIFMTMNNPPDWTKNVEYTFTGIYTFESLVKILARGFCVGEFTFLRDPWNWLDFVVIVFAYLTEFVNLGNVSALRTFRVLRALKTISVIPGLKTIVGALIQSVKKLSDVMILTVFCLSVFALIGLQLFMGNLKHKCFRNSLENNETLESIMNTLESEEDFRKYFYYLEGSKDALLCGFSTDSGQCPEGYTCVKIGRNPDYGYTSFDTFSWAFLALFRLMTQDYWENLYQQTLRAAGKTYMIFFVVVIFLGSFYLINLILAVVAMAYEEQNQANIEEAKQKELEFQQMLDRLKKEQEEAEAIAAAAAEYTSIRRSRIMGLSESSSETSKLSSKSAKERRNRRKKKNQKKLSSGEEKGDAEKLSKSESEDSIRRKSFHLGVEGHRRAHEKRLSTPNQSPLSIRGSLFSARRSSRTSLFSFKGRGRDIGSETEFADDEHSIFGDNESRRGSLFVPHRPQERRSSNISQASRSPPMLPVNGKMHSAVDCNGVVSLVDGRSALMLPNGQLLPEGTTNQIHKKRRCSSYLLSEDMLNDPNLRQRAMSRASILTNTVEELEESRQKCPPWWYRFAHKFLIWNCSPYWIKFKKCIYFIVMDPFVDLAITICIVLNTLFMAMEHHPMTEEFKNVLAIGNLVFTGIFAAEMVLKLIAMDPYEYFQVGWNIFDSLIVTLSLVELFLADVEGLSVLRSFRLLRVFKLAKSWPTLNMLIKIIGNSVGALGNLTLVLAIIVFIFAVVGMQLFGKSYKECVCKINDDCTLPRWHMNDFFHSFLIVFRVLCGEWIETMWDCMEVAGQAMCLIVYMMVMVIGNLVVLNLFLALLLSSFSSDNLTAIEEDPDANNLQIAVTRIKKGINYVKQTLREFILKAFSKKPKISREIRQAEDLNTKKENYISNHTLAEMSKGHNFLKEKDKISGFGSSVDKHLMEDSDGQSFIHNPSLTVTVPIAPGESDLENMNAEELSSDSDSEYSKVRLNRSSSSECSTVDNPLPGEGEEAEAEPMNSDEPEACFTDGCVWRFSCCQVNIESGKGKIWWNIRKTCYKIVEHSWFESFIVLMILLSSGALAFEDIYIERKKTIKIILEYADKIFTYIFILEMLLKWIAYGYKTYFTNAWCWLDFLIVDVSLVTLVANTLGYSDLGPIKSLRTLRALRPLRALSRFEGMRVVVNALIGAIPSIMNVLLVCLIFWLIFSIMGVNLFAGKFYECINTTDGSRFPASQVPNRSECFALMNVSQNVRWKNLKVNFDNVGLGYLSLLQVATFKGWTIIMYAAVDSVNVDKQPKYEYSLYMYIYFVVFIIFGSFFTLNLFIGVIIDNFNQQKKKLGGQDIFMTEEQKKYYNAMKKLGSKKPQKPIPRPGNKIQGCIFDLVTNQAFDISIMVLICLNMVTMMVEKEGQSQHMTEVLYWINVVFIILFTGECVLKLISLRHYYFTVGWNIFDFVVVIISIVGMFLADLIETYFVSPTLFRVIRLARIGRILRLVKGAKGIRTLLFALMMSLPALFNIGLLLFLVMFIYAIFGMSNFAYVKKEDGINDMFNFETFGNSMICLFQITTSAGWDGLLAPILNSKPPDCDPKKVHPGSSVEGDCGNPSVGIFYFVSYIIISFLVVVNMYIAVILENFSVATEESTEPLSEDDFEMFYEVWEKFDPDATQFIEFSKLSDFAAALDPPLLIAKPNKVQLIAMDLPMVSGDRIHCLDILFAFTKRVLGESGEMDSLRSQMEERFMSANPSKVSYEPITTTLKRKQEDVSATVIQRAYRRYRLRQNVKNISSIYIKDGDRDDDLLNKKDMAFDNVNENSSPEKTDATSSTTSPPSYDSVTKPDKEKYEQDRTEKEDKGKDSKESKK

Compound	IC50 (human Nav1.7) [nM]	IC50 (Nav1.2 (rBIIa)) [nM]
CC[C@H](C)[C@H](NC(=O)[C@H](CCCCN)NC(=O)[C@H](CCCCN)NC(=O)[C@H](CCCCN)NC(=O)[C@@H]1CSSC[C@@H]2NC(=O)[C@H](CCCCN)NC(=O)[C@H](CCCNC(=N)N)NC(=O)[C@H](C)NC(=O)[C@H](CO)NC(=O)[C@H](CC(=O)O)NC(=O)[C@@H]3CSSC[C@H](NC(=O)[C@H](C(C)C)NC(=O)[C@H](CC(C)C)NC(=O)CNC(=O)[C@H](CCC(=O)O)NC(=O)[C@H](CSSC[C@H](NC(=O)[C@@H](N)Cc4ccc(O)cc4)C(=O)N[C@@H](CCC(N)=O)C(=O)N[C@@H](CCCCN)C(=O)N[C@@H](Cc4c[nH]c5ccccc45)C(=O)N[C@@H](CCSC)C(=O)N[C@@H](Cc4c[nH]c5ccccc45)C(=O)N[C@@H]([C@@H](C)O)C(=O)N3)NC2=O)C(=O)N[C@@H](CCCNC(=N)N)C(=O)N[C@@H](CC(C)C)C(=O)N[C@@H](Cc2c[nH]c3ccccc23)C(=O)N1)C(=O)N[C@@H](CC(C)C)C(=O)N[C@@H](Cc1c[nH]c2ccccc12)C(=O)O [compound 9] (H-YCQKWMWTCDSARKCCEGLVCRLWCKKKILW-OH; disulfide 2-16, 9-21, 15-25)	1	33
CC[C@H](C)[C@H](NC(=O)[C@H](CC(C)C)NC(=O)[C@H](CCCCN)NC(=O)[C@H](CCCCN)NC(=O)[C@H](CCCCN)NC(=O)[C@@H]1CSSC[C@@H]2NC(=O)[C@H](CCCCN)NC(=O)[C@H](CCCNC(=N)N)NC(=O)[C@H](C)NC(=O)[C@H](CO)NC(=O)[C@H](CC(=O)O)NC(=O)[C@@H]3CSSC[C@H](NC(=O)[C@H](C(C)C)NC(=O)[C@H](CC(C)C)NC(=O)CNC(=O)[C@H](CCC(=O)O)NC(=O)[C@H](CSSC[C@H](NC(=O)[C@@H](N)Cc4ccc(O)cc4)C(=O)N[C@@H](CCC(N)=O)C(=O)N[C@@H](CCCCN)C(=O)N[C@@H](Cc4c[nH]c5ccccc45)C(=O)N[C@@H](CCSC)C(=O)N[C@@H](Cc4c[nH]c5ccccc45)C(=O)N[C@@H]([C@@H](C)O)C(=O)N3)NC2=O)C(=O)N[C@@H](CCCNC(=N)N)C(=O)N[C@@H](CC(C)C)C(=O)N[C@@H](Cc2c[nH]c3ccccc23)C(=O)N1)C(=O)O [compound 10] (H-YCQKWMWTCDSARKCCEGLVCRLWCKKKLI-OH; disulfide 2-16, 9-21, 15-25)	4	98 ± 10
CC[C@H](C)[C@H](NC(=O)[C@](C)(CC(C)C)NC(=O)[C@H](CCCCN)NC(=O)[C@H](CCCCN)NC(=O)[C@H](CCCCN)NC(=O)[C@@H]1CSSC[C@@H]2NC(=O)[C@H](CCCCN)NC(=O)[C@H](CCCNC(=N)N)NC(=O)[C@H](C)NC(=O)[C@H](CO)NC(=O)[C@H](CC(=O)O)NC(=O)[C@@H]3CSSC[C@H](NC(=O)[C@H](C(C)C)NC(=O)[C@H](CC(C)C)NC(=O)CNC(=O)[C@H](CCC(=O)O)NC(=O)[C@H](CSSC[C@H](NC(=O)[C@@H](N)Cc4ccc(O)cc4)C(=O)N[C@@H](CCC(N)=O)C(=O)N[C@@H](CCCCN)C(=O)N[C@@H](Cc4c[nH]c5ccccc45)C(=O)N[C@@H](CCSC)C(=O)N[C@@H](Cc4c[nH]c5ccccc45)C(=O)N[C@@H]([C@@H](C)O)C(=O)N3)NC2=O)C(=O)N[C@@H](CCCNC(=N)N)C(=O)N[C@@H](CC(C)C)C(=O)N[C@@H](Cc2c[nH]c3ccccc23)C(=O)N1)C(=O)O [compound 11] (H-YCQKWMWTCDSARKCCEGLVCRLWCKKK[αMeL]I-OH; disulfide 2-16, 9-21, 15-25)	10 ± 1	342 ± 73
CC[C@H](C)[C@H](NC(=O)[C@H](CC(C)C)N(C)C(=O)[C@H](CCCCN)NC(=O)[C@H](CCCCN)NC(=O)[C@H](CCCCN)NC(=O)[C@@H]1CSSC[C@@H]2NC(=O)[C@H](CCCCN)NC(=O)[C@H](CCCNC(=N)N)NC(=O)[C@H](C)NC(=O)[C@H](CO)NC(=O)[C@H](CC(=O)O)NC(=O)[C@@H]3CSSC[C@H](NC(=O)[C@H](C(C)C)NC(=O)[C@H](CC(C)C)NC(=O)CNC(=O)[C@H](CCC(=O)O)NC(=O)[C@H](CSSC[C@H](NC(=O)[C@@H](N)Cc4ccc(O)cc4)C(=O)N[C@@H](CCC(N)=O)C(=O)N[C@@H](CCCCN)C(=O)N[C@@H](Cc4c[nH]c5ccccc45)C(=O)N[C@@H](CCSC)C(=O)N[C@@H](Cc4c[nH]c5ccccc45)C(=O)N[C@@H]([C@@H](C)O)C(=O)N3)NC2=O)C(=O)N[C@@H](CCCNC(=N)N)C(=O)N[C@@H](CC(C)C)C(=O)N[C@@H](Cc2c[nH]c3ccccc23)C(=O)N1)C(=O)O [compound 12] (H-YCQKWMWTCDSARKCCEGLVCRLWCKKK[NMeL]I-OH; disulfide 2-16, 9-21, 15-25)	528 ± 100	138 ± 40
CC[C@H](C)[C@H](NC(=O)[C@H](CCCCN)NC(=O)[C@H](CCCCN)NC(=O)[C@@H]1CSSC[C@@H]2NC(=O)[C@H](CCCCN)NC(=O)[C@H](CCCNC(=N)N)NC(=O)[C@H](C)NC(=O)[C@H](CO)NC(=O)[C@H](CC(=O)O)NC(=O)[C@@H]3CSSC[C@H](NC(=O)[C@H](C(C)C)NC(=O)[C@H](CC(C)C)NC(=O)CNC(=O)[C@H](CCC(=O)O)NC(=O)[C@H](CSSC[C@H](NC(=O)[C@@H](N)Cc4ccc(O)cc4)C(=O)N[C@@H](CCC(N)=O)C(=O)N[C@@H](CCCCN)C(=O)N[C@@H](Cc4c[nH]c5ccccc45)C(=O)N[C@@H](CCSC)C(=O)N[C@@H](Cc4c[nH]c5ccccc45)C(=O)N[C@@H]([C@@H](C)O)C(=O)N3)NC2=O)C(=O)N[C@@H](CCCNC(=N)N)C(=O)N[C@@H](CC(C)C)C(=O)N[C@@H](Cc2c[nH]c3ccccc23)C(=O)N1)C(=O)N[C@@H](CC(C)C)C(=O)N[C@@H](Cc1c[nH]c2ccccc12)C(=O)O [compound 13] (H-YCQKWMWTCDSARKCCEGLVCRLWCKKILW-OH; disulfide 2-16, 9-21, 15-25)	3	50 ± 10
CC[C@H](C)[C@H](NC(=O)[C@H](CCCCN)NC(=O)[C@H](CCCCN)NC(=O)[C@@H]1CSSC[C@@H]2NC(=O)[C@H](CCCCN)NC(=O)[C@H](CCCNC(=N)N)NC(=O)[C@H](C)NC(=O)[C@H](CO)NC(=O)[C@H](CC(=O)O)NC(=O)[C@@H]3CSSC[C@H](NC(=O)[C@H](C(C)C)NC(=O)[C@H](CC(C)C)NC(=O)CNC(=O)[C@H](CCC(=O)O)NC(=O)[C@H](CSSC[C@H](NC(=O)[C@@H](N)Cc4ccc(O)cc4)C(=O)N[C@@H](CCC(N)=O)C(=O)N[C@@H](CCCCN)C(=O)N[C@@H](Cc4c[nH]c5ccccc45)C(=O)N[C@@H](CCSC)C(=O)N[C@@H](Cc4c[nH]c5ccccc45)C(=O)N[C@@H]([C@@H](C)O)C(=O)N3)NC2=O)C(=O)N[C@@H](CCCNC(=N)N)C(=O)N[C@@H](CC(C)C)C(=O)N[C@@H](Cc2c[nH]c3ccccc23)C(=O)N1)C(=O)N[C@H](C(=O)N[C@@H](Cc1c[nH]c2ccccc12)C(=O)O)[C@@H](C)CC [compound 14] (H-YCQKWMWTCDSARKCCEGLVCRLWCKKIIW-OH; disulfide 2-16, 9-21, 15-25)	5 ± 1	45
